Assay results taken from ChEMBL document CHEMBL3885881, “DrugMatrix”.

Species: Rattus norvegicus
Assay: DrugMatrix - Regimen: Daily Repeat
Format: toxicity, organism-based, Sprague-Dawley
Parameters: regimen Daily Repeat, gender Male, age 6-8 weeks
Details: in vivo, po, 75 mg/kg, route oral GAVAGE, dose level High, vehicle .5 % CMC; for ABSOLUTE BASOPHIL / ABSOLUTE EOSINOPHIL / ABSOLUTE LYMPHOCYTE / ABSOLUTE MONOCYTE / ABSOLUTE SEGMENTED NEUTROPHIL / BASOPHIL / EOSINOPHIL / ERYTHROCYTE COUNT / HEMATOCRIT / HEMOGLOBIN / LEUKOCYTE COUNT / LYMPHOCYTE / MEAN CORPUSCULAR HEMOGLOBIN / MEAN CORPUSCULAR HEMOGLOBIN CONCENTRATION / MEAN CORPUSCULAR VOLUME / MONOCYTE / NEUTROPHIL / NUCLEATED RED BLOOD CELLS / PLATELET COUNT: tissue Blood
[1] = 72 h, tissue Plasma, time 3 day
[2] = 120 h, tissue Plasma, time 5 day

`Nc1ccc(Cl)cc1` [4-CHLOROANILINE] was tested, and the “ABSOLUTE BASOPHIL” value (72 h, time 3 day) was 0 CELLS/uL, the “ABSOLUTE EOSINOPHIL” value (72 h, time 3 day) was 340 CELLS/uL and the “ABSOLUTE LYMPHOCYTE” value (72 h, time 3 day) was 18564 CELLS/uL. For the same molecule, the “ABSOLUTE MONOCYTE” value (72 h, time 3 day) was 396 CELLS/uL, the “ABSOLUTE SEGMENTED NEUTROPHIL” value (72 h, time 3 day) was 3900 CELLS/uL and the BASOPHIL (72 h, time 3 day) was 0%. The EOSINOPHIL (72 h, time 3 day) was 1.67%, the “ERYTHROCYTE COUNT” value (72 h, time 3 day) was 5.42 x10E6/uL and the HEMATOCRIT (72 h, time 3 day) was 35.1%. For the same molecule, the HEMOGLOBIN (72 h, time 3 day) was 13.57 G/DL, the “LEUKOCYTE COUNT” value (72 h, time 3 day) was 27.87 x10E3/uL and the LYMPHOCYTE (72 h, time 3 day) was 79.33%. For the same molecule, the “MEAN CORPUSCULAR HEMOGLOBIN” value (72 h, time 3 day) was 25.13 pg, the “MEAN CORPUSCULAR HEMOGLOBIN CONCENTRATION” value (72 h, time 3 day) was 38.77 G/DL and the “MEAN CORPUSCULAR VOLUME” value (72 h, time 3 day) was 64.77 fL. For the same molecule, the MONOCYTE (72 h, time 3 day) was 1.67%, the NEUTROPHIL (72 h, time 3 day) was 17.33% and the “NUCLEATED RED BLOOD CELLS” value (72 h, time 3 day) was 1 /100WBC. The “PLATELET COUNT” value (72 h, time 3 day) was 1129 x10E3/uL, the “ALANINE AMINOTRANSFERASE” value [1] was 48.33 u/L and the ALBUMIN [1] was 4.23 G/DL. For the same molecule, the “ALKALINE PHOSPHATASE” value [1] was 297 u/L, the “ASPARTATE AMINOTRANSFERASE” value [1] was 88.67 u/L and the “BLOOD UREA NITROGEN” value [1] was 14.67 mg/dL. The “CARBON DIOXIDE” value [1] was 26.67 mmol/L, the CHLORIDE [1] was 104 MEQ/L and the CHOLESTEROL [1] was 52.67 mg/dL. For the same molecule, the CREATININE [1] was 0.27 mg/dL, the GLUCOSE [1] was 226.33 mg/dL and the “LACTATE DEHYDROGENASE” value [1] was 200 u/L. It also gave an LIPASE [1] of 9.67 u/L, a PHOSPHORUS [1] of 13.43 mg/dL and a POTASSIUM [1] of 6.55 MEQ/L. For the same molecule, the SODIUM [1] was 147 MEQ/L, the “TOTAL BILIRUBIN” value [1] was 0.23 mg/dL and the “TOTAL PROTEIN” value [1] was 6.3 G/DL. For the same molecule, the “URIC ACID” value [1] was 2.03 mg/dL, the “ABSOLUTE BASOPHIL” value (120 h, time 5 day) was 0 CELLS/uL and the “ABSOLUTE EOSINOPHIL” value (120 h, time 5 day) was 666.67 CELLS/uL. The “ABSOLUTE LYMPHOCYTE” value (120 h, time 5 day) was 19854.67 CELLS/uL, the “ABSOLUTE MONOCYTE” value (120 h, time 5 day) was 430.67 CELLS/uL and the “ABSOLUTE SEGMENTED NEUTROPHIL” value (120 h, time 5 day) was 5848 CELLS/uL. The BASOPHIL (120 h, time 5 day) was 0%, the EOSINOPHIL (120 h, time 5 day) was 2.33% and the “ERYTHROCYTE COUNT” value (120 h, time 5 day) was 4.48 x10E6/uL. The HEMATOCRIT (120 h, time 5 day) was 32.57%, the HEMOGLOBIN (120 h, time 5 day) was 13.73 G/DL and the “LEUKOCYTE COUNT” value (120 h, time 5 day) was 26.8 x10E3/uL. The LYMPHOCYTE (120 h, time 5 day) was 74%, the “MEAN CORPUSCULAR HEMOGLOBIN” value (120 h, time 5 day) was 30.77 pg and the “MEAN CORPUSCULAR HEMOGLOBIN CONCENTRATION” value (120 h, time 5 day) was 42.2 G/DL. For the same molecule, the “MEAN CORPUSCULAR VOLUME” value (120 h, time 5 day) was 72.87 fL, the MONOCYTE (120 h, time 5 day) was 1.67% and the NEUTROPHIL (120 h, time 5 day) was 22%. For the same molecule, the “NUCLEATED RED BLOOD CELLS” value (120 h, time 5 day) was 1.33 /100WBC, the “PLATELET COUNT” value (120 h, time 5 day) was 1147 x10E3/uL and the “ALANINE AMINOTRANSFERASE” value [2] was 61.33 u/L. The ALBUMIN [2] was 4.23 G/DL, the “ALKALINE PHOSPHATASE” value [2] was 360.33 u/L and the “ASPARTATE AMINOTRANSFERASE” value [2] was 93.67 u/L. For the same molecule, the “BLOOD UREA NITROGEN” value [2] was 13 mg/dL, the “CARBON DIOXIDE” value [2] was 31.33 mmol/L and the CHLORIDE [2] was 102.33 MEQ/L. The CHOLESTEROL [2] was 64.67 mg/dL, the CREATININE [2] was 0.2 mg/dL and the GLUCOSE [2] was 157.33 mg/dL. For the same molecule, the “LACTATE DEHYDROGENASE” value [2] was 180.67 u/L, the LIPASE [2] was 9 u/L and the PHOSPHORUS [2] was 11.23 mg/dL. For the same molecule, the POTASSIUM [2] was 6.43 MEQ/L, the SODIUM [2] was 148.33 MEQ/L and the “TOTAL BILIRUBIN” value [2] was 0.43 mg/dL. For the same molecule, the “TOTAL PROTEIN” value [2] was 6.23 G/DL.
